Source: patent US12471620B2, “Use of isothiocyanate in smokeless tobacco products” (Gamot Global Pte. Ltd., priority 2019, dated 2025)

System: A549 cells
Experiment: CellEvent Caspase 3/7 green detection assay of apoptosis, brightfield and fluorescent imaging
Format: cell-based, human
Conditions: for concentration at which exponentially more cells undergo apoptosis than at lower concentrations: at 48 hours (AITC, combinations) or earlier than at lower concentrations; for induction of cell death (apoptosis): daily treatment, imaged at 24 to 96 hours (combinations up to 72 hours)
Procedure: A549 cells were plated into 48 well culture plates at a density of 3.0×10^4 cells/cm^2. Cells were dissociated with 0.05% trypsin EDTA following a 5-minute incubation at 37° C., neutralized in a 1:1 ratio of standard medium and counted using a hemocytometer prior to plating. All wells were settled overnight prior to addition of one of the following treatment compounds: AITC, PEITC, Thymoquinone, or Resveratrol. All treatments were performed within 24 hours following initial plating.
Treatment of the A549 cells occurred at the following time points and concentrations: AITC—25 μM, 50 μM and 100 μM for 24, 48 and 96 hours. PEITC—25 μM, 50 μM, 100 μM and 200 μM for 24, 48 and 96 hours. TQ—25 μM, 50 μM, 10 0 μM and 200 μM for 24, 48 and 96 hours. Resveratrol—25 μM, 50 μM and 100 μM for 48 and 96 hours. DMSO was used to dissolve each compound, and cells treated with DMSO without any of tested compounds served as a control. Treated cells received daily treatments using the same concentrations until the last time point of the experiment.
Apoptosis was detected using the CellEvent Caspase 3/7 green detection kit/assay from Thermofisher Scientific. Cells were incubated with diluted assay reagent for 30 minutes at 37° C. prior to analysis, and imaged by a brightfield and a fluorescent microscopes.
CellEvent Caspase-3/7 Green Detection Reagent is intrinsically non-fluorescent, as the four amino acid peptide (DEVD peptide) inhibits the ability of the dye to bind to DNA. However, following activation of caspase-3/7 in apoptotic cells, the DEVD peptide is cleaved, enabling the dye to bind to DNA and produce a bright, fluorogenic response. The fluorescent emission of the dye ˜530 can be observed under a fluorescent microscope.

SMILES | concentration at which exponentially more cells undergo apoptosis than at lower concentrations [µM] | induction of cell death (apoptosis) | apoptotic effect at 25 μM relative to higher concentrations (25 μM) | onset of apoptotic effects (effects only observed at 48 and 96 hours)
C=CCN=C=S [AITC, Allyl Isothiocyanate] | ≥ 50 | induces cancer cell death |  | 
Oc1ccc(C=Cc2cc(O)cc(O)c2)cc1 [Resveratrol] | ≥ 50 | induces cell death | reduced | delayed relative to other compounds
CC1=CC(=O)C(C(C)C)=CC1=O [Thymoquinone] | ≥ 100 | induces cell death |  | 
